Laboratory results from ChEMBL document CHEMBL1201862, “PubChem BioAssay data set” (2004).
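Method: 48-hour compound exposure of cells in 96-well plates, five concentrations, linear interpolation of endpoints. GI50 is the concentration that inhibits growth by half.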 Activity calls are given as the source filed them. No stated cut-off is given here; in the data, active = GI50 up to about 1.1 µM and inactive = higher.

Tests used:
Experiment in all cases: DTP human tumour cell line panel, 48 h
IGROV-1 = system: IGROV-1
MOLT-4 = system: MOLT-4
NCI/ADR-RES = system: NCI/ADR-RES
SK-MEL-28 = system: SK-MEL-28
SK-OV-3 = system: SK-OV-3
OVCAR-8 = system: OVCAR-8
SK-MEL-2 = system: SK-MEL-2
MCF7 = system: MCF7
SNB-19 = system: SNB-19
HOP-62 = system: HOP-62
HCC 2998 = system: HCC 2998
U-251 = system: U-251
CCRF-CEM = system: CCRF-CEM
SN12C = system: SN12C
HCT-116 = system: HCT-116
RXF 393 = system: RXF 393
UO-31 = system: UO-31
OVCAR-4 = system: OVCAR-4
HCT-15 = system: HCT-15
M14 = system: M14

SMILES	GI50 (IGROV-1)	GI50 (MOLT-4)	GI50 (NCI/ADR-RES)	GI50 (SK-MEL-28)	GI50 (SK-OV-3)	GI50 (OVCAR-8)	GI50 (SK-MEL-2)	GI50 (MCF7)	GI50 (SNB-19)	GI50 (HOP-62)	GI50 (HCC 2998)	GI50 (U-251)	GI50 (CCRF-CEM)	GI50 (SN12C)	GI50 (HCT-116)	GI50 (RXF 393)	GI50 (UO-31)	GI50 (OVCAR-4)	GI50 (HCT-15) [µM]	GI50 (M14)
CCCC[S+]([O-])CC(CO)NC(=O)/C=C/c1c(C)[nH]c(=O)[nH]c1=O (configuration not stated)	7.29 µM (inactive)	8.3 µM (inactive)	12.4 µM (inactive)	6.5 µM (inactive)	10.7 µM (inactive)	6.73 µM (inactive)	6.34 µM (inactive)	8.67 µM (inactive)	4.89 µM (inactive)	8.93 µM (inactive)	8.28 µM (inactive)	4.03 µM (inactive)	6.65 µM (inactive)	5.92 µM (inactive)	10 µM (inactive)	11 µM (inactive)	13.3 µM (inactive)	0.203 µM (active)	31.8	–
N/C(=N\O)N/N=C\c1ccc(O)c(O)c1O	57 µM (inactive)	24.9 µM (inactive)	19.5 µM (inactive)	> 100 µM (inactive)	> 100 µM (inactive)	30.4 µM (inactive)	> 46 µM (inactive)	16.7 µM (inactive)	> 51.9 µM (inactive)	> 41.1 µM (inactive)	36.9 µM (inactive)	> 52.8 µM (inactive)	17.3 µM (inactive)	19.5 µM (inactive)	27.5 µM (inactive)	18.9 µM (inactive)	> 100 µM (inactive)	10.9 µM (inactive)	19.2	–
S=c1sc2c(s1)SC(c1ccccc1)CS2 (configuration not stated)	> 100 µM (inactive)	> 100 µM (inactive)	> 52 µM (inactive)	> 100 µM (inactive)	> 100 µM (inactive)	> 100 µM (inactive)	> 100 µM (inactive)	> 100 µM (inactive)	> 100 µM (inactive)	> 90.8 µM (inactive)	> 85.1 µM (inactive)	> 100 µM (inactive)	> 100 µM (inactive)	> 100 µM (inactive)	> 100 µM (inactive)	25.1 µM (inactive)	> 100 µM (inactive)	20.4 µM (inactive)	> 100	–
COc1cc([N+](=O)[O-])ccc1N1C(=O)C2c3[nH]c4ccccc4c3C3CCC(C(C)(C)C)CC3C2C1=O (configuration not stated)	> 100 µM (inactive)	> 100 µM (inactive)	22.3 µM (inactive)	9.12 µM (inactive)	> 100 µM (inactive)	29 µM (inactive)	94.8 µM (inactive)	> 100 µM (inactive)	–	7.43 µM (inactive)	> 100 µM (inactive)	9.79 µM (inactive)	21.8 µM (inactive)	64.4 µM (inactive)	44.5 µM (inactive)	–	> 100 µM (inactive)	17.2 µM (inactive)	> 100	13.6 µM (inactive)
CCOC(=O)C1=C(C)NC(=O)N([N+](=O)[O-])C1c1ccccc1C(F)(F)F (configuration not stated)	> 100 µM (inactive)	> 100 µM (inactive)	34.1 µM (inactive)	24.8 µM (inactive)	> 100 µM (inactive)	69.7 µM (inactive)	> 100 µM (inactive)	52.6 µM (inactive)	> 100 µM (inactive)	70.6 µM (inactive)	–	69 µM (inactive)	26.6 µM (inactive)	> 100 µM (inactive)	35.7 µM (inactive)	61 µM (inactive)	> 100 µM (inactive)	27.2 µM (inactive)	55.2	43.5 µM (inactive)
CCOC(=O)C1=NN(c2ccc(C)cc2)C2=CC(C)=NN(C)C(=S)N21	> 100 µM (inactive)	> 100 µM (inactive)	> 100 µM (inactive)	> 100 µM (inactive)	70.3 µM (inactive)	42.9 µM (inactive)	> 100 µM (inactive)	> 10 µM (inactive)	> 100 µM (inactive)	–	> 100 µM (inactive)	38.5 µM (inactive)	> 100 µM (inactive)	> 100 µM (inactive)	31.1 µM (inactive)	12.6 µM (inactive)	> 100 µM (inactive)	> 100 µM (inactive)	> 100	> 100 µM (inactive)
CSc1nc(NC2OCC(OC(C)=O)C(OC(C)=O)C2OC(C)=O)c(/N=C(\C)C(C)=O)c(=O)[nH]1 (configuration not stated)	> 100 µM (inactive)	> 100 µM (inactive)	–	> 100 µM (inactive)	–	> 100 µM (inactive)	> 100 µM (inactive)	–	> 100 µM (inactive)	–	–	> 100 µM (inactive)	> 100 µM (inactive)	> 100 µM (inactive)	> 100 µM (inactive)	> 100 µM (inactive)	–	> 100 µM (inactive)	> 100	> 100 µM (inactive)
